US4621090A, “Antifungal compositions” (Toyo Soda Manufacturing Co., Ltd., priority 1983, dated 1986)
≈ marks a conversion by molar mass, not a printed value. Like-named read-outs stand apart in the source and are kept apart here.

Columns and labels:
[1] = test system: Microsporum canis MTU-20010; test: Growth inhibition test; assay type: cell-based; settings: read-out: Minimum inhibitory concentration
[2] = test system: Trichophyton mentagraphytes MTU-19024; test: Minimum inhibitory concentration, anti-Trichophyton mentagraphytes activity test, strain MTU-19024; assay type: cell-based; settings: Trichophyton, MTU19024, Sabouraud's dextrose agar, 27° C., a week
Experimental: (§1) The activity was tested by the 10 time-step dilution test, using the Sabouraud's dextrose agar culture medium (2% dextrose, 1% pepton and 1.5% agar; pH 6.5±). A platinum loopful (about 10 μl) spore suspension (prepared from a reserved strain of Trichlophyton mentagraphytes and containing 1×10^6 cells/ml) was applied in the form of drawn lines on a plate of a culture medium containing the active ingredients. The culture medium plate was kept at 27° C. for a week and then visually observed to see if any colonies had formed. The minimum inhibitory concentration was defined as the minimum concentration with which formation of distinct colonies on the culture medium plate was not observed.

[3] = test system: Fusarium pedrosoi MTU-22009; test: Growth inhibition test; assay type: cell-based; settings: MTU22009, 168 h, after 7 days cultivation at 27° C., read-out: Minimum inhibitory concentration
ICR mice [4] = test: Acute toxicity test using ICR mice; assay type: in vivo
Experimental: The acute toxicity was tested by applying active ingredients of the antifungal compositions of this invention as shown in Table 4 to ICR mice (male, age-5 weeks, 25 g ±weight, 5 mice in each group). Observation continued for 3 more weeks starting from the last administration.

[5] = test system: Epidermophyton floccosum MTU-21007; test: Growth inhibition test; assay type: cell-based; settings: MTU21007, 336 h, read-out: Minimum inhibitory concentration
[6] = test system: Trichophyton mentagraphytes; test: Medical treatment of guinea pigs experimentally infected with Trichophyton mentagraphytes; settings: 1% emulsion once a day; for Scope of symptoms (0-4): mean of 6 guinea pigs; for Reversed cultivation: skin cut into 10 pieces, cultivated 14 days at 27° C.
[7] = test system: Phialophora verrucosa MTU-23001; test: Growth inhibition test; assay type: cell-based; settings: read-out: Minimum inhibitory concentration
[8] = test system: Aspergillus fumigatus MTU-06002; test: Growth inhibition test; assay type: cell-based; settings: MTU06002, 168 h, read-out: Minimum inhibitory concentration
[9] = test system: Trichophyton mentagraphytes MTU-19031; test: Minimum inhibitory concentration, anti-Trichophyton mentagraphytes activity test, strain MTU-19031; assay type: cell-based; settings: Trichophyton, MTU19031, Sabouraud's dextrose agar, 27° C., a week
Experimental: as §1

[10] = test system: Microsporum gypseum MTU-20005; test: Growth inhibition test; assay type: cell-based; settings: Nannizzia gypsea, read-out: Minimum inhibitory concentration
[11] = test system: Fonsecaea compactum MTU-22023; test: Growth inhibition test; assay type: cell-based; settings: Fonsecaea compacta, read-out: Minimum inhibitory concentration
[12] = test system: Blastomyces dermatitidis MTU-17009; test: Growth inhibition test; assay type: cell-based; settings: MTU17009, 336 h, read-out: Minimum inhibitory concentration
[13] = test system: Cryptococcus neoformans MTU-13002; test: Growth inhibition test; assay type: cell-based; settings: MTU13002, 48 h, read-out: Minimum inhibitory concentration
ICR mice [14] = test: Skin irritation test using ICR mice; assay type: in vivo; settings: Cutaneous, 1% direct application once a day for 14 consecutive days
[15] = test system: Trichophyton violaceum MTU-19021; test: Growth inhibition test; assay type: cell-based; settings: read-out: Minimum inhibitory concentration
[16] = test system: Aspergillus niger MTU-06051; test: Growth inhibition test; assay type: cell-based; settings: read-out: Minimum inhibitory concentration
[17] = test system: Histoplasma capsulatum MTU-16001; test: microbe, parasite or virus in culture; assay type: cell-based; settings: MTU16001, 336 h, read-out: Minimum inhibitory concentration
[18] = Intraperitoneal, 100 mg/kg once a day for 6 consecutive days
[19] = Intraperitoneal, 500 mg/kg once
[20] = Oral, 500 mg/kg once a day for 6 consecutive days
[21] = after 14 days cultivation at 27° C.

For `COc1cccc(N(C)C(=S)Oc2ccc3ccccc3c2)n1` [compound 7, O--2-Naphthyl N--methyl-N--(6-methoxy-2-pyridyl)thiocarbamate], the MIC ([1]; MTU20010, 168 h, after 7 days cultivation at 27° C.) was 0.05 µg/mL (≈ 0.154 µM), the MIC ([1]; MTU20010, 336 h, after 14 days cultivation at 27° C.) was 0.05 µg/mL (≈ 0.154 µM) and the MIC [2] was 0.05 µg/mL (≈ 0.154 µM). For the same molecule, the MIC [3] was 0.5 µg/mL (≈ 1.54 µM), the Number of deaths (ICR mice [4]; [18]) was 0 and the “Number of symptomatic weight decrease” value (ICR mice [4]; [18]) was 0. The Number of deaths (ICR mice [4]; [19]) was 0, the “Number of symptomatic weight decrease” value (ICR mice [4]; [19]) was 0 and the Number of deaths (ICR mice [4]; [20]) was 0. The “Number of symptomatic weight decrease” value (ICR mice [4]; [20]) was 0, the MIC [5, 21] was 0.05 µg/mL (≈ 0.154 µM) and the “Scope of symptoms (0-4)” value ([6]; 5 days after the infection) was 0. For the same molecule, the “Scope of symptoms (0-4)” value ([6]; 9 days after the infection) was 1.33, the “Scope of symptoms (0-4)” value ([6]; 13 days after the infection) was 1.66 and the “Scope of symptoms (0-4)” value ([6]; 17 days after the infection) was 0.66. The “Scope of symptoms (0-4)” value ([6]; 21 days after the infection) was 0.33, the Reversed cultivation [6] was 1/60 and the MIC ([7]; MTU23001, 168 h, after 7 days cultivation at 27° C.) was 0.5 µg/mL (≈ 1.54 µM). For the same molecule, the MIC ([7]; MTU23001, 336 h, after 14 days cultivation at 27° C.) was 0.5 µg/mL (≈ 1.54 µM), the MIC ([8]; after 7 days cultivation at 27° C.) was 0.5 µg/mL (≈ 1.54 µM) and the MIC [9] was 0.05 µg/mL (≈ 0.154 µM). It also gave an MIC ([10]; MTU20005, 168 h, after 7 days cultivation at 27° C.) of 0.05 µg/mL (≈ 0.154 µM), an MIC ([10]; MTU20005, 336 h, after 14 days cultivation at 27° C.) of 0.05 µg/mL (≈ 0.154 µM) and an MIC ([11]; MTU22023, 168 h, after 7 days cultivation at 27° C.) of 0.5 µg/mL (≈ 1.54 µM). It also gave an MIC ([11]; MTU22023, 336 h, after 14 days cultivation at 27° C.) of 0.5 µg/mL (≈ 1.54 µM), an MIC [12, 21] of 0.5 µg/mL (≈ 1.54 µM) and an MIC ([13]; after 2 days cultivation at 27° C.) of 0.05 µg/mL (≈ 0.154 µM). The “Number of skin irritation symptoms” value (ICR mice [14]) was 0, the MIC ([15]; MTU19021, 168 h, after 7 days cultivation at 27° C.) was 0.05 µg/mL (≈ 0.154 µM) and the MIC ([15]; MTU19021, 336 h, after 14 days cultivation at 27° C.) was 0.05 µg/mL (≈ 0.154 µM). For the same molecule, the MIC ([16]; MTU06051, 168 h, after 7 days cultivation at 27° C.) was 0.05 µg/mL (≈ 0.154 µM), the MIC ([16]; MTU06051, 336 h, after 14 days cultivation at 27° C.) was 0.05 µg/mL (≈ 0.154 µM) and the MIC [17] was 0.5 µg/mL (≈ 1.54 µM).
Work on `COc1cccc(N(C)C(=S)Oc2ccc3c(c2)CCCC3)n1` [compound 11, O--5,6,7,8-Tetrahydro-2-naphthyl N--N--(6-methoxy-2-pyridyl)-N--methylthiocarbamate] yielded an MIC ([1]; MTU20010, 168 h) of 0.05 µg/mL (≈ 0.152 µM), an MIC ([1]; MTU20010, 336 h) of 0.05 µg/mL (≈ 0.152 µM) and an MIC [2] of 0.05 µg/mL (≈ 0.152 µM). The Number of deaths (ICR mice [4]; [18]) was 0, the “Number of symptomatic weight decrease” value (ICR mice [4]; [18]) was 0 and the Number of deaths (ICR mice [4]; [19]) was 0. The “Number of symptomatic weight decrease” value (ICR mice [4]; [19]) was 0, the Number of deaths (ICR mice [4]; [20]) was 0 and the “Number of symptomatic weight decrease” value (ICR mice [4]; [20]) was 0. For the same molecule, the MIC [5] was 0.05 µg/mL (≈ 0.152 µM), the “Scope of symptoms (0-4)” value ([6]; 5 days after the infection) was 0.66 and the “Scope of symptoms (0-4)” value ([6]; 9 days after the infection) was 2.0. The “Scope of symptoms (0-4)” value ([6]; 13 days after the infection) was 2.0, the “Scope of symptoms (0-4)” value ([6]; 17 days after the infection) was 0 and the “Scope of symptoms (0-4)” value ([6]; 21 days after the infection) was 0. For the same molecule, the Reversed cultivation [6] was 1/60, the MIC ([7]; MTU23001, 168 h) was 0.5 µg/mL (≈ 1.52 µM) and the MIC ([7]; MTU23001, 336 h) was 0.5 µg/mL (≈ 1.52 µM). The MIC [8] was 0.5 µg/mL (≈ 1.52 µM), the MIC [9] was 0.05 µg/mL (≈ 0.152 µM) and the MIC ([10]; MTU20005, 168 h) was 0.5 µg/mL (≈ 1.52 µM). For the same molecule, the MIC ([10]; MTU20005, 336 h) was 0.05 µg/mL (≈ 0.152 µM), the MIC ([11]; MTU22023, 168 h) was 0.5 µg/mL (≈ 1.52 µM) and the MIC ([11]; MTU22023, 336 h) was 0.5 µg/mL (≈ 1.52 µM). The MIC [12] was 0.5 µg/mL (≈ 1.52 µM), the MIC [13] was 0.5 µg/mL (≈ 1.52 µM) and the “Number of skin irritation symptoms” value (ICR mice [14]) was 0. For the same molecule, the MIC ([15]; MTU19021, 168 h) was 0.05 µg/mL (≈ 0.152 µM), the MIC ([15]; MTU19021, 336 h) was 0.05 µg/mL (≈ 0.152 µM) and the MIC ([16]; MTU06051, 168 h) was 0.05 µg/mL (≈ 0.152 µM). For the same molecule, the MIC ([16]; MTU06051, 336 h) was 0.05 µg/mL (≈ 0.152 µM) and the MIC [17] was 0.5 µg/mL (≈ 1.52 µM).
